Laboratory results published in ChEMBL document CHEMBL3046862, “Structure-activity relationship of aliphatic compounds for nematicidal activity against pine wood nematode (Bursaphelenchus xylophilus)” (2010).

Assays:
Type in all cases: functional
[1] = test system: Bursaphelenchus xylophilus; experiment: Nematicidal activity against Bursaphelenchus xylophilus at 0.5 mg/ml measured after 48 hr under microscope
[2] = test system: Bursaphelenchus xylophilus; experiment: microbe, parasite or virus in culture; details: 48 h, at 0.125 mg/mL
Description: Nematicidal activity against Bursaphelenchus xylophilus assessed as mortality at 0.125 mg/ml measured after 48 hr under microscope

[3] = test system: Bursaphelenchus xylophilus; experiment: Nematicidal activity against Bursaphelenchus xylophilus assessed as mortality at 0.25 mg/ml measured after 48 hr under microscope
[4] = test system: Bursaphelenchus xylophilus; experiment: Nematicidal activity against Bursaphelenchus xylophilus assessed as mortality at 0.0625 mg/ml measured after 48 hr under microscope

Compound | mortality at 500 µg/mL [1] [%] | mortality at 125 µg/mL [2] [%] | mortality at 250 µg/mL [3] [%] | mortality at 62.5 µg/mL [4] [%]
CCCCCCCC(=O)O [OCTANOIC ACID] | 100 | 50.1 | 98.9 | –
CCCCCCCCCCCCC(=O)O [TRIDECANOATE] | 4.4 | – | – | –
CCCCCCCCCCCCC | 3.3 | – | – | –
CCCCCCCCC=O [NONANAL] | 14.2 | – | – | –
CCCCCCCCCOC(C)=O [NONYLACETATE] | 3.1 | – | – | –
CCCCCCCCCCC/C=C/CO | 2.6 | – | – | –
CCCCCCCCCCCC [DODECANE] | 1.6 | – | – | –
CCCCCCCCCCCCCOC(C)=O [TRIDECYLACETATE] | 1.4 | – | – | –
CCCCCCCCCCCCO [DODECANOL] | 3.1 | – | – | –
CCCCCCCCC/C=C/CO | 4.7 | – | – | –
CCCCCCCCCCCCCC | 1.7 | – | – | –
CCCCCCCCCCCC(=O)O [DODECANOATE] | 1.9 | – | – | –
CCCCCCC=O [HEPTANAL] | 6 | – | – | –
CCCCCCC(=O)O [HEPTANOATE] | 100 | – | 53.7 | –
CCCC/C=C/CO | 50.9 | – | – | –
CCCCCCCCO [OCTANOL] | 100 | – | 17 | –
CCC/C=C/CO | 13 | – | – | –
CCCCCCO [1-HEXANOL] | 12.6 | – | – | –
CCCCCCOC(C)=O [HEXYL ACETATE] | 1.5 | – | – | –
CCC/C=C/C=O | 95.6 | 22 | 83.1 | –
CCCCCCCCCCC(=O)O [UNDECANOATE] | 98.5 | 51.3 | 96 | –

Compound | mortality at 500 µg/mL [1] [%] | mortality at 125 µg/mL [2] [%] | mortality at 250 µg/mL [3] [%] | mortality at 62.5 µg/mL [4] [%]
CCCCCCCCCCCCCO | 4.4 | – | – | –
CCCCCCCCCCCCOC(C)=O [DODECYLACETATE] | 1.7 | – | – | –
CCCCCC/C=C/C=O [2-NONENAL] | 100 | 99.8 | 100 | 47.4
CCCCCC(=O)O [HEXANOATE] | 31.3 | – | – | –
CCCCCCCCCCCCCCO [MYRISTYL ALCOHOL] | 4 | – | – | –
CCCCCCCCCCCCCC(=O)O [MYRISTIC ACID] | 3.8 | – | – | –
CCCCC/C=C/C=O | 100 | 90.6 | 99 | 22.6
CCCCCC [HEXANE] | 4.4 | – | – | –
CCCCCCC/C=C/CO | 100 | 100 | 100 | 43.3
CCCCCCCC/C=C/CO | 100 | 100 | 100 | 45.1
CCCCCCCCOC(C)=O [OCTYL ACETATE] | 4.9 | – | – | –
CCCCCCCC=O [OCTANAL] | 13.6 | – | – | –
CCCCCCCCCCCOC(C)=O [UNDECYLACETATE] | 2.3 | – | – | –
CCCCCCCCCC(=O)O [DECANOIC ACID] | 100 | 100 | 100 | 59.8
CCCCCC=O [HEXANAL] | 4.2 | – | – | –
CCCCCCC [HEPTANE] | 2.6 | – | – | –
CCCCCCCO [1-HEPTANOL] | 29.8 | – | – | –
CCCCCCCCCCCC=O [DODECANAL] | 6.6 | – | – | –
CCCCCCCCCCCCCC=O [TETRADECANAL] | 3.5 | – | – | –
CCCCCCCCCCC/C=C/C=O | 3.3 | – | – | –
CCCCCCCCCCCCCCOC(C)=O | 0.9 | – | – | –

Compound | mortality at 500 µg/mL [1] [%] | mortality at 125 µg/mL [2] [%] | mortality at 250 µg/mL [3] [%] | mortality at 62.5 µg/mL [4] [%]
CCCCCCCCCCCO [UNDECANOL] | 100 | 99.4 | 100 | 98.3
CCCCCCCCCCCCC=O [TRIDECANAL] | 7.6 | – | – | –
CCCCCCCCCC=O [DECANAL] | 7.9 | – | – | –
CCCCCCCCCC/C=C/C=O | 4.9 | – | – | –
CCCCCCCCC(=O)O [NONANOATE] | 100 | 100 | 100 | 40.1
CCCCCCCCCCC | 1.6 | – | – | –
CCCC/C=C/C=O | 100 | 76.3 | 97.8 | 18
CCCCCCCCCCOC(C)=O [DECYLACETATE] | 1.6 | – | – | –
CCCCCCCCCC/C=C/CO | 3.5 | – | – | –
CCCCCCCCC/C=C/C=O | 5.1 | – | – | –
CCCCCCCCCCO [DECANOL] | 100 | 100 | 100 | 15.6
CCCCC/C=C/CO | 97.4 | – | 31.5 | –
CCCCCC/C=C/CO | 100 | 45.5 | 100 | –
CCCCCCCC/C=C/C=O | 24.8 | – | – | –
CCCCCCCOC(C)=O [HEPTYLACETATE] | 7.4 | – | – | –
CCCCCCCC [OCTANE] | 3.8 | – | – | –
CCCCCCCCCC [DECANE] | 1.6 | – | – | –
CCCCCCCCCO [NONANOL] | 100 | 81 | 100 | 4.7
CCCCCCCCC [NONANE] | 2.3 | – | – | –
CCCCCCCCCCC=O [UNDECANAL] | 7.4 | – | – | –
